Measurements from US9359301B2, “Ethynyl derivatives” (Hoffmann-La Roche Inc., priority 2012, dated 2016).

Experiments:
[1] = target: T1, human mGlu5a receptor (Homo sapiens (Human), UniProt P41594); assay: MPEP binding assay ([3H]MPEP displacement); details: for EC50: [3H]MPEP 2 nM, EBNA cell membranes, 1 h at 4° C., read-out: mGlu5-MPEP binding EC50; for Ki: comparison table
Protocol: For binding experiments, cDNA encoding human mGlu 5a receptor was transiently transfected into EBNA cells using a procedure described by Schlaeger and Christensen [Cytotechnology 15:1-13 (1998)]. Cell membrane homogenates were stored at −80° C. until the day of assay where upon they were thawed and resuspended and polytronised in 15 mM Tris-HCl, 120 mM NaCl, 100 mM KCl, 25 mM CaCl2, 25 mM MgCl2 binding buffer at pH 7.4 to a final assay concentration of 20 μg protein/well.
Saturation isotherms were determined by addition of twelve [^3H]MPEP concentrations (0.04-100 nM) to these membranes (in a total volume of 200 μl) for 1 h at 4° C. Competition experiments were performed with a fixed concentration of [^3H]MPEP (2 nM) and IC50 values of test compounds evaluated using 11 concentrations (0.3-10,000 nM). Incubations were performed for 1 h at 4° C.
At the end of the incubation, membranes were filtered onto unifilter (96-well white microplate with bonded GF/C filter preincubated 1 h in 0.1% PEI in wash buffer, Packard BioScience, Meriden, Conn.) with a Filtermate 96 harvester (Packard BioScience) and washed 3 times with cold 50 mM Tris-HCl, pH 7.4 buffer. Nonspecific binding was measured in the presence of 10 μM MPEP. The radioactivity on the filter was counted (3 min) on a Packard Top-count microplate scintillation counter with quenching correction after addition of 45 μl of microscint 40 (Canberra Packard S. A., Zürich, Switzerland) and shaking for 20 min.

[2] = target: T1, human mGlu5a receptor; assay: Intracellular Ca2+ mobilization assay (mGlu5 PAM assay); format: cell-based; details: for mGlu5 PAM EC50: HEK-293 cells, human mGlu5a, L-glutamate at EC20; for Activity profile: PAM = positive, NAM = negative allosteric modulator of mGlu5; for EC50 mGlu5 PAM assay: comparison table; for Efficacy: maximal response in % of maximal stimulatory effect of saturating L-glutamate
Protocol: A monoclonal HEK-293 cell line stably transfected with a cDNA encoding for the human mGlu5a receptor was generated; for the work with mGlu5 Positive Allosteric Modulators (PAMs), a cell line with low receptor expression levels and low constitutive receptor activity was selected to allow the differentiation of agonistic versus PAM activity. Cells were cultured according to standard protocols (Freshney, 2000) in Dulbecco's Modified Eagle Medium with high glucose supplemented with 1 mM glutamine, 10% (vol/vol) heat-inactivated bovine calf serum, Penicillin/Streptomycin, 50 μg/ml hygromycin and 15 μg/ml blasticidin (all cell culture reagents and antibiotics from Invitrogen, Basel, Switzerland).
About 24 hrs before an experiment, 5×10^4 cells/well were seeded in poly-D-lysine coated, black/clear-bottomed 96-well plates. The cells were loaded with 2.5 μM Fluo-4AM in loading buffer (1×HBSS, 20 mM HEPES) for 1 hr at 37° C. and washed five times with loading buffer. The cells were transferred into a Functional Drug Screening System 7000 (Hamamatsu, Paris, France), and 11 half logarithmic serial dilutions of test compound at 37° C. were added and the cells were incubated for 10-30 min. with on-line recording of fluorescence. Following this pre-incubation step, the agonist L-glutamate was added to the cells at a concentration corresponding to EC20 (typically around 80 μM) with on-line recording of fluorescence; in order to account for day-to-day variations in the responsiveness of cells, the EC20 of glutamate was determined immediately ahead of each experiment by recording of a full dose-response curve of glutamate.
Responses were measured as peak increase in fluorescence minus basal (i.e. fluorescence without addition of L-glutamate), normalized to the maximal stimulatory effect obtained with saturating concentrations of L-glutamate. Graphs were plotted with the % maximal stimulatory using XLfit, a curve fitting program that iteratively plots the data using Levenburg Marquardt algorithm. The single site competition analysis equation used was y=A+((B−A)/(1+((x/C)D))), where y is the % maximal stimulatory effect, A is the minimum y, B is the maximum y, C is the EC50, x is the log 10 of the concentration of the competing compound and D is the slope of the curve (the Hill Coefficient). From these curves the EC50 (concentration at which half maximal stimulation was achieved), the Hill coefficient as well as the maximal response in % of the maximal stimulatory effect obtained with saturating concentrations of L-glutamate were calculated.
A depression of the signal observed after addition of the EC20 concentration of L-glutamate was indicative of an inhibitory activity of the test compound.

T1 sequence (P41594 other isoform, or with tags, fused parts or gaps): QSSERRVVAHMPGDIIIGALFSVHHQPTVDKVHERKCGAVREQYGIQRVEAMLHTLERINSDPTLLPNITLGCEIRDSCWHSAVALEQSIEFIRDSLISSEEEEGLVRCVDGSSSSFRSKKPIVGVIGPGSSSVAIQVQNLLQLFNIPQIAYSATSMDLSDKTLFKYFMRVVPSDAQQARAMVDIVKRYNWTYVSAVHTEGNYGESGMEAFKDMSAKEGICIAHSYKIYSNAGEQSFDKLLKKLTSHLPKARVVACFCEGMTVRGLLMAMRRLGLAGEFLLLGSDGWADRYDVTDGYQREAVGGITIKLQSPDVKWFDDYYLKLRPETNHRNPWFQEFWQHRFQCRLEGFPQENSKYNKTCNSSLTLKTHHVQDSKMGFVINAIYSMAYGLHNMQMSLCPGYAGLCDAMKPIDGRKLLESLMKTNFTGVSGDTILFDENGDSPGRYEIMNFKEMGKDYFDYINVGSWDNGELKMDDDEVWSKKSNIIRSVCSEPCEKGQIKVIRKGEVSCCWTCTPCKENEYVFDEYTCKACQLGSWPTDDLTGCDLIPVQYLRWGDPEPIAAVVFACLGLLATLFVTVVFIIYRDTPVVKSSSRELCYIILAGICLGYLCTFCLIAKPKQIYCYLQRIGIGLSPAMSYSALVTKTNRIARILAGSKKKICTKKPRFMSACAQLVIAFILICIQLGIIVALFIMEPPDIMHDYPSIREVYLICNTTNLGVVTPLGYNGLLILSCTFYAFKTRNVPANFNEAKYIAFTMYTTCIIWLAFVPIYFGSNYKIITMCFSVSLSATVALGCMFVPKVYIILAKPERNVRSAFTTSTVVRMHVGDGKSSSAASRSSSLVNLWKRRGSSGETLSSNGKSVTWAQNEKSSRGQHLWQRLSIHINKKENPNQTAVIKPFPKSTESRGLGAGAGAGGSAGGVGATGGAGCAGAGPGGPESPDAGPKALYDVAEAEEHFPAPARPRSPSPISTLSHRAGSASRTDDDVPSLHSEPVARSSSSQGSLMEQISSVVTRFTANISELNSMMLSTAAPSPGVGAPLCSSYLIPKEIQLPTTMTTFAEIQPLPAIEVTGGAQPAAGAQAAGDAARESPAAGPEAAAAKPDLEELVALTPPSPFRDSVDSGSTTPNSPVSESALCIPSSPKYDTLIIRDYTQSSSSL

SMILES	EC50 [1] [nM]	Ki [1] [nM]	mGlu5 PAM EC50 [2]	Activity profile [2]	EC50 mGlu5 PAM assay [2]	Efficacy [2] [%]
CCN(C(=O)c1ccc(C#Cc2cccc(F)c2)cn1)C(C)(C)C [Example 1, 5-(3-Fluoro-phenylethynyl)-pyridine-2-carboxylic acid tert-butyl-ethyl-amide]	42	42	in- active	NAM	inactive	–
CCN(C(=O)c1ccc(C#Cc2cccc(Cl)c2)cn1)C(C)(C)C [Example 2, 5-(3-Chloro-phenylethynyl)-pyridine-2-carboxylic acid tert-butyl-ethyl-amide]	24	24	in- active	NAM	inactive	–
CCN(C(=O)c1ncc(C#Cc2cccc(F)c2)cn1)C(C)(C)C [Example 3, 5-(3-Fluoro-phenylethynyl)-pyrimidine-2-carboxylic acid tert-butyl-ethyl-amide]	94	94	in- active	NAM	inactive	–
CCN(C(=O)c1ncc(C#Cc2cccc(Cl)c2)cn1)C(C)(C)C [Example 4, 5-(3-Chloro-phenylethynyl)-pyrimidine-2-carboxylic acid tert-butyl-ethyl-amide]	46	46	in- active	NAM	inactive	–
CN(C(=O)c1ccc(C#Cc2cccc(F)c2)cn1)C(C)(C)C [Reference compound 1, reference compound]	29	–	–	PAM	–	64
CN(C(=O)c1ncc(C#Cc2cccc(F)c2)cn1)C(C)(C)C [Reference compound 2, reference compound]	51	51	–	PAM	–	55
